Data published in ChEMBL document CHEMBL1145312, “Structure-activity relationships of triazolopyridine oxazole p38 inhibitors: identification of candidates for clinical development” (Bioorg Med Chem Lett, 2006).

Tests used:
Homo sapiens = species on record: Homo sapiens; assay: Inhibition of LPS-induced TNFalpha production in human whole blood; assay type: functional, organism-based
[1] = biological target: Glycogen synthase kinase-3 beta (Homo sapiens, UniProt P49841); assay: Inhibition of GSK3-beta
[2] = biological target: AMP-activated protein kinase, AMPK; assay: Inhibition of AMPK; assay type: protein-complex assay
[3] = biological target: Cyclin-dependent kinase 2 (Homo sapiens, UniProt P24941); assay: Inhibition of CDK2
[4] = biological target: c-Jun N-terminal kinase, JNK (Homo sapiens, UniProt P45983+P53779+P45984); assay: Inhibition of JNK; assay type: protein assay
[5] = biological target: MAP kinase-activated protein kinase 2 (Homo sapiens, UniProt P49137); assay: Inhibition of MAPKAP-K2
[6] = biological target: T1, Mitogen-activated protein kinase 13 (Homo sapiens, UniProt O15264); assay: Inhibition of p38delta
T1 sequence (O15264 whole entry): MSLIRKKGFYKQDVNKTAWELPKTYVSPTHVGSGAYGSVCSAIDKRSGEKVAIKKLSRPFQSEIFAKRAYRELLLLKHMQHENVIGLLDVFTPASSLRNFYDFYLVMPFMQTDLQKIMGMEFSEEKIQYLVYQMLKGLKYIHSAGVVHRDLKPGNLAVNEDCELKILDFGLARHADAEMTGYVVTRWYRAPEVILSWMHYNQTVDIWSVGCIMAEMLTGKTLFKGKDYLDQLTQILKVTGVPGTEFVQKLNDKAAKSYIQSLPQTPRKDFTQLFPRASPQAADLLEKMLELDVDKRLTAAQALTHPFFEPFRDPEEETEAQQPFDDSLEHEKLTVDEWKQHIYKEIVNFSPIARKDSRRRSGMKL

[7] = biological target: Dual specificity mitogen-activated protein kinase kinase 1 (Homo sapiens, UniProt Q02750); assay: Inhibition of MKK1
[8] = biological target: T2, MAP kinase-activated protein kinase 5 (Homo sapiens, UniProt Q8IW41); assay: Inhibition of PRAK
T2 sequence (Q8IW41 whole entry): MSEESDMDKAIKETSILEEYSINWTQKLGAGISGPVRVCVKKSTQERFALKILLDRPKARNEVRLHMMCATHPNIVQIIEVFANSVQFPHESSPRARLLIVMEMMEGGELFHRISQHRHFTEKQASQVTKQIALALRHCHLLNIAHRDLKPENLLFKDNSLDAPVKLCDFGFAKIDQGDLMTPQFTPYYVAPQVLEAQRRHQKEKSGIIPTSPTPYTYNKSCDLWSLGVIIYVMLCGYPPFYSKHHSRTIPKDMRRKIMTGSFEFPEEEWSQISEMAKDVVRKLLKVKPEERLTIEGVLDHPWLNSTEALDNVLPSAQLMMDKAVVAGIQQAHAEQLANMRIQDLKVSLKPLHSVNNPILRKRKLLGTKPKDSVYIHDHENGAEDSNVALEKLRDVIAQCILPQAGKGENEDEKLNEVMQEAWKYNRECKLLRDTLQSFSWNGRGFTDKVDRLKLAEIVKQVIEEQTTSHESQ

[9] = biological target: Dual specificity tyrosine-phosphorylation-regulated kinase 1A (Homo sapiens, UniProt Q13627); assay: Inhibition of DYRK1a
[10] = biological target: T3, Serine/threonine-protein kinase Chk1 (Homo sapiens, UniProt O14757); assay: Inhibition of CHK1
T3 sequence (O14757 whole entry): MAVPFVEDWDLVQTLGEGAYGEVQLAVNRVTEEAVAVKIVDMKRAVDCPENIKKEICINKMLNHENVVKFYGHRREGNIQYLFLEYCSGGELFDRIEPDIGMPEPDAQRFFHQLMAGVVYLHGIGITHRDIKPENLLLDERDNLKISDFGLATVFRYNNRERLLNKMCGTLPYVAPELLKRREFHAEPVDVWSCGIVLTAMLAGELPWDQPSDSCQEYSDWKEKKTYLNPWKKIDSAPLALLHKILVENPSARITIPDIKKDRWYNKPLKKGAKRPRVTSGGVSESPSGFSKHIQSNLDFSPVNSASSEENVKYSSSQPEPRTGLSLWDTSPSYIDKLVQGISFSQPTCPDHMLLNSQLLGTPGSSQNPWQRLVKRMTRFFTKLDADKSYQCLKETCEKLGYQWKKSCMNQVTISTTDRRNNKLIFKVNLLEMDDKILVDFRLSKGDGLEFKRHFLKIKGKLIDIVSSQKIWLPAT

[11] = biological target: Ribosomal protein S6 kinase (P70S6K) (Homo sapiens, UniProt P23443+Q9UBS0); assay: Inhibition of P70S6K; assay type: protein-complex assay
[12] = biological target: T4, Serine/threonine-protein kinase Sgk1 (Homo sapiens, UniProt O00141); assay: Inhibition of SGK
T4 sequence (O00141 whole entry): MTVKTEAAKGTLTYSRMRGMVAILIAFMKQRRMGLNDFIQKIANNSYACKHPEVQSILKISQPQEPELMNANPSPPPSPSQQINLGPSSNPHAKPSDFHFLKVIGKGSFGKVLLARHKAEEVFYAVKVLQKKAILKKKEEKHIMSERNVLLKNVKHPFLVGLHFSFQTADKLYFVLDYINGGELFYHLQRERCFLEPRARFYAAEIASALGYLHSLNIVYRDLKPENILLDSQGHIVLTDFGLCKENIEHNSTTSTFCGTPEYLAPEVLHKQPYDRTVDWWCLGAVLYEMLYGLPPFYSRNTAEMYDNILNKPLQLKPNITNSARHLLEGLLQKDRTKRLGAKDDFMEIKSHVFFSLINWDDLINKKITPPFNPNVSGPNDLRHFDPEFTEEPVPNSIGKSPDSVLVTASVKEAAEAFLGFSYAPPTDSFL

[13] = biological target: Ribosomal protein S6 kinase alpha-5 (Homo sapiens, UniProt O75582); assay: Inhibition of MSK1
[14] = biological target: RAC-alpha serine/threonine-protein kinase (Homo sapiens, UniProt P31749); assay: Inhibition of PKBalpha
[15] = biological target: Mitogen-activated protein kinase 14 (Homo sapiens, UniProt Q16539); assay: Inhibition of p38alpha
[16] = biological target: Rho-associated protein kinase 2 (Homo sapiens, UniProt O75116); assay: Inhibition of ROCK2
[17] = Inhibition of PI3K

Chain of Dual specificity mitogen-activated protein kinase kinase 1 (Q02750 whole entry): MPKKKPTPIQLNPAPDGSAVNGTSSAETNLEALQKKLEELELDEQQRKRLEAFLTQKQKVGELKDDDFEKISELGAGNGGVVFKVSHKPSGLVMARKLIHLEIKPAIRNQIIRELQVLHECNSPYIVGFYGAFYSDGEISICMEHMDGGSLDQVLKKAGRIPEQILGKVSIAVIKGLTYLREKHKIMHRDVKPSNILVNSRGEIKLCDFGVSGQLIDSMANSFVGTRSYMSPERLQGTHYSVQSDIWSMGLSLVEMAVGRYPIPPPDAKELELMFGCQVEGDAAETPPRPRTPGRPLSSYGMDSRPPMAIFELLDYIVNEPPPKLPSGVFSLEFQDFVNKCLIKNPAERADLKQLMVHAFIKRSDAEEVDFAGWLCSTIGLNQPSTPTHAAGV
Chain of Mitogen-activated protein kinase 14 (Q16539 whole entry): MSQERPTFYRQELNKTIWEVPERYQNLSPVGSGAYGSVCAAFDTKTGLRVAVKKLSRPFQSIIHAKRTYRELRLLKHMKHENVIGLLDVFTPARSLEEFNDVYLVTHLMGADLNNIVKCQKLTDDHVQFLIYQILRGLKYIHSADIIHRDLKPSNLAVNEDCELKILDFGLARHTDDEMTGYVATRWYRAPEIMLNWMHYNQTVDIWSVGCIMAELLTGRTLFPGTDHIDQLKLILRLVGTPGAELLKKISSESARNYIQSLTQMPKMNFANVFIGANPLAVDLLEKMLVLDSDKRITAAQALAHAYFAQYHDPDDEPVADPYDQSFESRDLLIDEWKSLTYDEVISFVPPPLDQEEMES
Chain of Ribosomal protein S6 kinase (P70S6K) (Q9UBS0 whole entry): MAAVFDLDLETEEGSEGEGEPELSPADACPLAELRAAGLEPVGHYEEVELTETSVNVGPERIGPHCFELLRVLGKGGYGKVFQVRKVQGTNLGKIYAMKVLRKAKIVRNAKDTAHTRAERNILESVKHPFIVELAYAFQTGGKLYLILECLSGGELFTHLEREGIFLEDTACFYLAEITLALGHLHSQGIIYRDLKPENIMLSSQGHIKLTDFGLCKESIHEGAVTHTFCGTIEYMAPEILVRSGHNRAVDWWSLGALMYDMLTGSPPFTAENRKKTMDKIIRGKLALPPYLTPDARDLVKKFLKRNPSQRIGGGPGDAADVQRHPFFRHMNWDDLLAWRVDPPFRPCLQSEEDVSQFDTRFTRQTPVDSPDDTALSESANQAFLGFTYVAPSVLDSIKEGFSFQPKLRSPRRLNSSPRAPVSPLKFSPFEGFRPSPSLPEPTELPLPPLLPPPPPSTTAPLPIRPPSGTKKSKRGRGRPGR
Chain of Ribosomal protein S6 kinase (P70S6K) (P23443 whole entry): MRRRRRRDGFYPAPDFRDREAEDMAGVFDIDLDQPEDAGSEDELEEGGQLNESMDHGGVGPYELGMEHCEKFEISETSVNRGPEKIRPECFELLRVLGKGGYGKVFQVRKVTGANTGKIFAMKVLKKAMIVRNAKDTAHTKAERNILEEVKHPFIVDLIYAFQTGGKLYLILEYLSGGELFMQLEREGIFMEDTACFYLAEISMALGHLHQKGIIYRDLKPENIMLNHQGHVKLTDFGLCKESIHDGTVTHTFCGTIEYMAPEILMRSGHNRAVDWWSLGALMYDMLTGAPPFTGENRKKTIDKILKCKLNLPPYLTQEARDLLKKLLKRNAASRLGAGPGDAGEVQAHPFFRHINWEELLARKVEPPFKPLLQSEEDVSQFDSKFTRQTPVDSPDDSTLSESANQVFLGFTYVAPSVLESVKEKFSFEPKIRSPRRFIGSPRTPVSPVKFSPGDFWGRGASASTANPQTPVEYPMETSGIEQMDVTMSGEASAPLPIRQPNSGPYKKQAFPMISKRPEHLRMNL
Chain of Glycogen synthase kinase-3 beta (P49841 whole entry): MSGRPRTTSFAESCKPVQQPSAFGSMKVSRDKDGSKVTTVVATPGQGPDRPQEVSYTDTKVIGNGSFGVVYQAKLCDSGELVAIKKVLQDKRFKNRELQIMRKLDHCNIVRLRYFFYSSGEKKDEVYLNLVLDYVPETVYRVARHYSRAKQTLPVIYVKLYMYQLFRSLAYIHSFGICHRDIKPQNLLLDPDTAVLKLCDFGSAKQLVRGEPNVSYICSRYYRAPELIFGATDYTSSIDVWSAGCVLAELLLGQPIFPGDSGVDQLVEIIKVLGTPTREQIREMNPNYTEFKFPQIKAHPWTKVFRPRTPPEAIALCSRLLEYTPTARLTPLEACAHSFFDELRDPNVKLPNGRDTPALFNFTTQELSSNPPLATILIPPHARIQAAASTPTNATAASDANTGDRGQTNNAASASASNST
Chain of Ribosomal protein S6 kinase alpha-5 (O75582 whole entry): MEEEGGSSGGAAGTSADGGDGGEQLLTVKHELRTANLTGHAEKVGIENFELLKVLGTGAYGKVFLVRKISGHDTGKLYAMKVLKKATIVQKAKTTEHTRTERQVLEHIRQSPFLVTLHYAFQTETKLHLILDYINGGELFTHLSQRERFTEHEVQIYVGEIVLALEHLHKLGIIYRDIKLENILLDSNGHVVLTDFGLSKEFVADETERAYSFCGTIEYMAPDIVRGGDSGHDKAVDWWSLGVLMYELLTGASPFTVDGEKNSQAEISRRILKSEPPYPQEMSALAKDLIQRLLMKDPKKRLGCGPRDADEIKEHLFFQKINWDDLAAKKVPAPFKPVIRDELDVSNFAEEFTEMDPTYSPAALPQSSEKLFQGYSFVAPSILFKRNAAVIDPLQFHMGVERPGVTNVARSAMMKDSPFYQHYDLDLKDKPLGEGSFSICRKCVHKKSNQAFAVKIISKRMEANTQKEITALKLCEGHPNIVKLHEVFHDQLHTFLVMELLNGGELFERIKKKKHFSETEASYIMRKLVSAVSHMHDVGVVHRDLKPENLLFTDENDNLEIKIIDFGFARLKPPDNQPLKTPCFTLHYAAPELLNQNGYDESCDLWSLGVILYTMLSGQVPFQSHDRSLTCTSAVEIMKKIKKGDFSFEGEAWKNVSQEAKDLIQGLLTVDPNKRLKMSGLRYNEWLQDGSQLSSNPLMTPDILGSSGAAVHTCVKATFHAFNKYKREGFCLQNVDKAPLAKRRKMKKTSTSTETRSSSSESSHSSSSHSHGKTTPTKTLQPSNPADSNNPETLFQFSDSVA
Chain of Rho-associated protein kinase 2 (O75116 whole entry): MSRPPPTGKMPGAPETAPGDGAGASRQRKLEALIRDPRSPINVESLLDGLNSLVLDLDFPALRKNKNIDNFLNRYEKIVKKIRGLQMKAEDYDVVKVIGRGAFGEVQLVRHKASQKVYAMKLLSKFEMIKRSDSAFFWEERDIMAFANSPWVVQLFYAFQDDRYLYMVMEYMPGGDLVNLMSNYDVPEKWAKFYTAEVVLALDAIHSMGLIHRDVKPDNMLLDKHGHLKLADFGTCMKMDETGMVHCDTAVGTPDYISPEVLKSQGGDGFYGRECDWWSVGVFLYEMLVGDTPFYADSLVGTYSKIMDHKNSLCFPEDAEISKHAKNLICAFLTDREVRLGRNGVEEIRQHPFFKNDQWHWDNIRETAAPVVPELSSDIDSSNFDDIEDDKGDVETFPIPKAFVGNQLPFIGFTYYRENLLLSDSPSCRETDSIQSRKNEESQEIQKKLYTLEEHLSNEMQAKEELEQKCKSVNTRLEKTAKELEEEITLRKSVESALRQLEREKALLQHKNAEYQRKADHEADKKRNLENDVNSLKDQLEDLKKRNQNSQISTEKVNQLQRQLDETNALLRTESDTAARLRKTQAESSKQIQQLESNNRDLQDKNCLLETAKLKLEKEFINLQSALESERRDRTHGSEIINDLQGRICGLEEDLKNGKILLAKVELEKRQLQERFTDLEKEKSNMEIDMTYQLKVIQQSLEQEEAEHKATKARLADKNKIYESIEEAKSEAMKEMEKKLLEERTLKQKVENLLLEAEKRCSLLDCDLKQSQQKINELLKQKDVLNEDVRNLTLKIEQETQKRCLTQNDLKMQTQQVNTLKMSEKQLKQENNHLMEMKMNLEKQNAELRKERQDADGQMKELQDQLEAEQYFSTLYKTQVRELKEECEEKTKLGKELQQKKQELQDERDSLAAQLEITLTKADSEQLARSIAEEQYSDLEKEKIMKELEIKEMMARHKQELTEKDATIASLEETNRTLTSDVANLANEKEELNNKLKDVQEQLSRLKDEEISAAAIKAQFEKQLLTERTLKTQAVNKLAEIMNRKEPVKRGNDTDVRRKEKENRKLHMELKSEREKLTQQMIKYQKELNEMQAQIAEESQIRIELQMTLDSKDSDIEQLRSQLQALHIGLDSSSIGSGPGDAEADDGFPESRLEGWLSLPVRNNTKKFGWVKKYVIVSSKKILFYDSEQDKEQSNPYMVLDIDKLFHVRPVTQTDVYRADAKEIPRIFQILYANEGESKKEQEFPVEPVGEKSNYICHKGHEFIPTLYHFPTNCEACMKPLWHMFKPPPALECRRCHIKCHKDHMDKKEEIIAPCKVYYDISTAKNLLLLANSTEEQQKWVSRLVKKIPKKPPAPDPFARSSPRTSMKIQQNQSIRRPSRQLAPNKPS
Chain of MAP kinase-activated protein kinase 2 (P49137 whole entry): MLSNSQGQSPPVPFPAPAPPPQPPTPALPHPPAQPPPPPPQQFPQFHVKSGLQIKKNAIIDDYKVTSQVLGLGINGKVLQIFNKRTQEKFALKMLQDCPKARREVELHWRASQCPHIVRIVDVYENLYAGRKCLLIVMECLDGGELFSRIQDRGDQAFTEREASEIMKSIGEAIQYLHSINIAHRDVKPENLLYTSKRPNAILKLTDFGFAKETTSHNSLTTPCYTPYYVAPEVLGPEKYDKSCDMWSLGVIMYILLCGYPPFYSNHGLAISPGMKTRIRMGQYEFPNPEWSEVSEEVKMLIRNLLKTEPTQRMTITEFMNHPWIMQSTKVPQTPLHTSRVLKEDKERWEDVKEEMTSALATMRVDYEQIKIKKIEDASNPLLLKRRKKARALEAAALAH

SMILES | IC50 (Homo sapiens) | IC50 [1] | IC50 [2] | IC50 [3] | IC50 [4] | IC50 [5] | IC50 [6] | IC50 [7] | IC50 [8] | IC50 [9] | IC50 [10] | IC50 [11] | IC50 [12] | IC50 [13] | IC50 [14] | IC50 [15] | IC50 [16] | IC50 [17]
CC(C)(C)c1nnc2ccc(-c3ocnc3-c3ccc(F)cc3F)cn12 | 0.076 µM | > 10 µM | > 10 µM | > 10 µM | > 10 µM | > 10 µM | > 10 µM | > 10 µM | > 10 µM | > 10 µM | > 10 µM | > 10 µM | > 10 µM | > 10 µM | > 10 µM | 0.0011 µM | > 10 µM | > 10 µM
CC(C)(C)c1nnc2ccc(-c3ocnc3-c3cc(F)c(F)cc3F)cn12 | 0.063 µM | > 10 µM | > 10 µM | > 10 µM | > 10 µM | > 10 µM | > 10 µM | > 10 µM | > 10 µM | > 10 µM | > 10 µM | > 10 µM | > 10 µM | > 10 µM | > 10 µM | 0.0018 µM | > 10 µM | > 10 µM
CCNc1nnc2ccc(-c3ocnc3-c3ccc(F)cc3)cn12 | 0.865 µM | > 10 µM | > 10 µM | > 10 µM | > 10 µM | > 10 µM | > 10 µM | > 10 µM | > 10 µM | > 10 µM | > 10 µM | > 10 µM | > 10 µM | > 10 µM | > 10 µM | 0.0076 µM | > 10 µM | > 10 µM
CC(C)c1nnc2ccc(-c3c[nH]nc3-c3cc(F)ccc3F)cn12 | 0.18 µM | > 10 µM | > 10 µM | > 10 µM | > 10 µM | > 10 µM | > 10 µM | > 10 µM | > 10 µM | > 10 µM | > 10 µM | > 10 µM | > 10 µM | > 10 µM | > 10 µM | 0.0028 µM | > 10 µM | > 10 µM
CC(C)c1nnc2ccc(-c3ocnc3-c3ccccc3)cn12 | 0.973 µM | > 10 µM | > 10 µM | > 10 µM | > 10 µM | > 10 µM | > 10 µM | > 10 µM | > 10 µM | > 10 µM | > 10 µM | > 10 µM | > 10 µM | > 10 µM | > 10 µM | 0.0096 µM | > 10 µM | > 10 µM
